Measurements as given in patent US20050255537A1, “Method for monitoring treatment with a parathyroid hormone” (priority 1999, published 2005).

Tests used:
Format in all cases: in vivo, human
postmenopausal women [1] = test: Example 4 population pharmacodynamic models of total lumbar spine and femoral neck BMD
Source text: Data from the studies described in Examples 1-3 above were further analyzed to develop more detailed models for the use of bone markers in monitoring and predicting effects of PTH on clinically significant correlates of efficacy in the treatment of osteoporosis, such as bone mineral density (BMD). Population pharmacodynamic (PD) models were developed to describe total lumbar spine and femoral neck bone mineral density (BMD) responses in ˜1500 postmenopausal women enrolled in a phase 3 study of LY333334 [rhPTH(1-34)]. Serum LY333334 (LY), procollagen 1 carboxy-terminal propeptide (PICP) and bone specific alkaline phosphatase (B SAP) concentrations, and urinary excretion of N-telopeptide (NTX) and free deoxypyridinoline (DPD) were also measured in a subset of ˜350 patients. LY dose, average steady-state LY concentration, and early changes in markers of bone turnover were each evaluated for their ability to predict subsequent changes in BMD. […] Response was greatest in patients with increased fracture risk (i.e., older women with low BMD, low body weight, and high bone turnover at baseline). In the subset analysis, PICP was the strongest indicator of BMD response; an increase >101 pM after 1 month of therapy was always associated with a gain in spine BMD. NTX was also a better predictor of increase in BMD than LY dose, but dose predicted BMD response better than LY, BSAP or DPD concentrations (p<0.001).
Population pharmacodynamic models were developed individually for total lumber spine BMD, femoral neck BMD, procollagen 1 carboxy-terminal propeptide (PICP), bone specific alkaline phosphate (BSAP), urinary N-telopeptide (NTX), and urinary free deoxypyridinoline (DPD). These treatment-response models characterized change in the pharmacodynamic endpoints and identified significant patient factors influencing response to therapy.
The final treatment-response models for total lumbar spine and femoral neck BMD were used to calculate BMD values after 21 months of treatment for each patient, based on the individual's parameter estimates (empirical Bayesian estimates). Similarly, the final treatment-response models for each biochemical maker (PICP, BSAP, NTX, and DPD) were used to calculate concentration values after 1 month of treatment for each patient. These predicted BMD measurements were merged with the predicted biochemical marker concentrations for patients who completed at least 12 months of LY333334 therapy.
Biochemical marker response-indicator models were developed to characterize the relationship between the biochemical marker concentrations at 1 month and response to therapy, as measured by change in total lumbar spine and femoral neck BMD.
Population pharmacodynamic analyses were undertaken to evaluate the time course of the relationships between efficacy measures and LY333334 dose or LY333334 concentrations. […] As a part of this assessment, a population placebo-response model describing the change in BMD in patients randomly assigned to placebo (supplemented with calcium and vitamin D) was first developed. Patient-specific factors that explained some of the variability of that model were identified and included in the model. A pharmacodynamic model describing the therapeutic response was then developed for patients randomly assigned to LY333334 treatment using the placebo-response model as the baseline function. Thus, the progression of bone loss that occurs in osteoporosis patients receiving only calcium and vitamin D supplementation was separated from the effects of LY333334 treatment.

postmenopausal women [2] = test: Pharmacokinetic/pharmacodynamic sigmoid Emax models (spine BMD, femoral neck BMD, PICP)
Source text: In order to explore the relationship between concentration and the effect on spine BMD, a pharmacokinetic/pharmacodynamic model was developed. This relationship was best described by a sigmoid Emax model with AUC50 estimated at 170 pg·hr/mL.
A pharmacokinetic/pharmacodynamic model was also developed for femoral neck BMD. The relationship was best described by a sigmoid Emax model with AUC50 estimated at 283 pg·hr/mL. […] Thus, the final pharmacodynamic model which included treatment group rather than systemic exposure, predicted the increase in hip BMD in a patient of average age (˜69 years), body weight (˜66 kg), and baseline NTX concentration (˜48 mmBCE/L) to be approximately 2.8% and 5.2% after 21 months of 20 μg/day and 40 μg/day therapy, respectively.
A pharmacokinetic/pharmacodynamic model was developed for the PICP response. […] Thus, LY333334 exposure was a less significant predictor of elevation in PICP concentrations than administered dose.

[3] = system: men with primary osteoporosis; test: Example 5 study GHAJ: incident nonvertebral fractures
Description: Four hundred thirty seven men with primary osteoporosis were enrolled in the study. Approximately one-third of die patients were randomly assigned to LY333334 40 μg/day plus calcium and vitamin D, one-third of the patients were randomly assigned to LY333334 20 μg/day plus calcium and vitamin D, and one-third of the patients were randomly assigned to placebo plus calcium and vitamin D. • Number of Subjects: • PTH: Male 437, Female 0, Total 437; • LY333334 20 μg: Male: Total 151. • LY333334 40 μg: Male: Total 139. • Placebo: Male: Total 147. • Diagnosis and Inclusion Criteria: The study patients were men with primary osteoporosis, aged 30 to 85 years, inclusive. L-2 to L-4 vertebrae must have been intact without artifacts, crush fracture or other abnormalities which would have interfered with the analysis of the posterior-anterior lumbar spine bone mineral density (BMD) measurement which must have been at least 2.0 SD below that of young, healthy men. […] Patient Demographic and Other Baseline Characteristics
Although the incidence of nonvertebral fractures was measured, it was not a specified efficacy endpoint. The number of patients reporting at least one incident nonvertebral fracture is tabulated by fracture location in Table 10 (below). […] At individual body sites, the number of fractures was insufficient for a meaningful statistical analysis.

[4] = 21 months, 20 and 40 μg groups together

In the case of `CC[C@H](C)[C@H](NC(=O)[C@H](CCC(=O)O)NC(=O)[C@H](CO)NC(=O)[C@@H](NC(=O)[C@@H](N)CO)C(C)C)C(=O)N[C@@H](CCC(N)=O)C(=O)N[C@@H](CC(C)C)C(=O)N[C@@H](CCSC)C(=O)N[C@@H](Cc1cnc[nH]1)C(=O)N[C@@H](CC(N)=O)C(=O)N[C@@H](CC(C)C)C(=O)NCC(=O)N[C@@H](CCCCN)C(=O)N[C@@H](Cc1cnc[nH]1)C(=O)N[C@@H](CC(C)C)C(=O)N[C@@H](CC(N)=O)C(=O)N[C@@H](CO)C(=O)N[C@@H](CCSC)C(=O)N[C@@H](CCC(=O)O)C(=O)N[C@@H](CCCN=C(N)N)C(=O)N[C@H](C(=O)N[C@@H](CCC(=O)O)C(=O)N[C@@H](Cc1c[nH]c2ccccc12)C(=O)N[C@@H](CC(C)C)C(=O)N[C@@H](CCCN=C(N)N)C(=O)N[C@@H](CCCCN)C(=O)N[C@@H](CCCCN)C(=O)N[C@@H](CC(C)C)C(=O)N[C@@H](CCC(N)=O)C(=O)N[C@@H](CC(=O)O)C(=O)N[C@H](C(=O)N[C@@H](Cc1cnc[nH]1)C(=O)N[C@@H](CC(N)=O)C(=O)N[C@@H](Cc1ccccc1)C(=O)O)C(C)C)C(C)C` [LY333334], the “final PD model predicted increase in hip (femoral neck) BMD” value (postmenopausal women [1]; 40 μg/day, 21 months) is reported as about 5.2%, the “final PD model predicted increase in total lumbar spine BMD” value (postmenopausal women [1]; 40 μg/day, 21 months) is reported as about 14.6% and the “treatment group model change from mean baseline femoral neck BMD” value (postmenopausal women [1]; 20-μg group, 21 months) is reported as 2.8%. For the same molecule, the “treatment group model change from mean baseline spine BMD” value (postmenopausal women [1]; 20-μg group, 21 months) was 10.5%, the “treatment group model predicted change in femoral neck BMD” value (postmenopausal women [1]; 20-μg group, 21 months) was 0.018 g/cm^2 and the “treatment group model predicted change in spine BMD” value (postmenopausal women [1]; 20-μg group, 21 months) was 0.086 g/cm^2. For the same molecule, the “base model change from mean baseline femoral neck BMD” value (postmenopausal women [1]; [4]) was 4.2%, the “base model change from mean baseline spine BMD” value (postmenopausal women [1]; [4]) was 12.6% and the “base model predicted increase in femoral neck BMD, typical treated patient” value (postmenopausal women [1]; 21 months, 20 and 40 μg groups together, 272 patients) was 0.027 g/cm^2. For the same molecule, the “base model predicted increase in spine BMD, typical treated patient” value (postmenopausal women [1]; 21 months, 20 and 40 μg groups together, 276 patients) was 0.103 g/cm^2, the “treatment group model change from mean baseline femoral neck BMD” value (postmenopausal women [1]; 40-μg group, 21 months) was 5.3% and the “treatment group model change from mean baseline spine BMD” value (postmenopausal women [1]; 40-μg group, 21 months) was 14.8%. For the same molecule, the “treatment group model predicted change in femoral neck BMD” value (postmenopausal women [1]; 40-μg group, 21 months) was 0.034 g/cm^2, the “treatment group model predicted change in spine BMD” value (postmenopausal women [1]; 40-μg group, 21 months) was 0.121 g/cm^2 and the “subjects with a negative BMD response (spine BMD<0.00 g/cm^2)” value (postmenopausal women [1]; from a total of 272, 21 months, FIG. 11) was “four”. For the same molecule, the “increase in PICP concentration at 1 month as % of the maximum effect” value (postmenopausal women [2]; 20 μg dose) was 70%, the “increase in femoral neck BMD as % of the maximum effect” value (postmenopausal women [2]; 20 μg dose) was 56% and the “increase in spine BMD as % of the maximum effect” value (postmenopausal women [2]; 20 μg dose) was 82%. The “increase in PICP concentration at 1 month as % of the maximum effect” value (postmenopausal women [2]; 40 μg dose) was 85%, the “increase in femoral neck BMD as % of the maximum effect” value (postmenopausal women [2]; 40 μg dose) was 67% and the “increase in spine BMD as % of the maximum effect” value (postmenopausal women [2]; 40 μg dose) was 92%. The “AUC50, sigmoid Emax model for PICP response” value (postmenopausal women [2]; PICP) was 239 pg·h/mL, the “AUC50, sigmoid Emax model for femoral neck BMD” value (postmenopausal women [2]; femoral neck BMD) was 283 pg·h/mL and the “AUC50, sigmoid Emax model for spine BMD” value (postmenopausal women [2]; spine BMD) was 170 pg·h/mL. For the same molecule, the “patients with at least one incident nonvertebral fracture: Ankle” value ([3]; 20 μg/day) was 1, the “patients with at least one incident nonvertebral fracture: Other” value ([3]; 20 μg/day) was 0 and the “patients with at least one incident nonvertebral fracture: Radius” value ([3]; 20 μg/day) was 1. The “patients with at least one incident nonvertebral fracture: Ribs” value ([3]; 20 μg/day) was 1, the “patients with at least one incident nonvertebral fracture: Total Patients” value ([3]; 20 μg/day) was 2 and the “patients with at least one incident nonvertebral fracture: Ankle” value ([3]; 40 μg/day) was 0. For the same molecule, the “patients with at least one incident nonvertebral fracture: Other” value ([3]; 40 μg/day) was 1, the “patients with at least one incident nonvertebral fracture: Radius” value ([3]; 40 μg/day) was 0 and the “patients with at least one incident nonvertebral fracture: Ribs” value ([3]; 40 μg/day) was 0. For the same molecule, the “patients with at least one incident nonvertebral fracture: Total Patients” value ([3]; 40 μg/day) was 1 and the “treatment difference in proportion of patients having at least one incident nonvertebral fracture” value ([3]; placebo, 20 and 40 μg/day, p=0.670) was “no significant treatment difference”.
